According to patent US20240383923A1, “HETEROARYL DERIVATIVE AND USE THEREOF” (VORONOI INC., priority 2022, published 2024):

Tested on: BT-474 cancer cells
Test: Inhibition of BT-474 cell proliferation (CellTiter-Glo)
Type: cell-based
Conditions: Homo sapiens, BT-474 cells, 120 hours
Method: BT-474 cancer cells were cultured by using RPMI-1640 medium containing 20% FBS. The BT-474 cancer cells were seeded to a white clear bottom 96 well plate (Corning) at 5,000 cells per well 48 hours before the BT-474 cancer cells were treated with Example Compounds. Example Compounds were diluted in dimethylsulfoxide (3-fold diluted, total 11 concentrations) and 1 μL each was injected so that the final concentration was 0.2 nM to 10 μM. For the measurement of living cells, the cells were stored at room temperature for 10 minutes using the CellTiter-Glo cell viability reagent (Promega) after a predetermined time (120 hours) after the treatment of Example Compounds, and then the luminescence intensity was measured using a reader (SynergyNeo, Biotek). Each test was repeated three times.
The result value was calculated as a cell growth rate (%) compared to a control group. Graphs were plotted and GI50 values were calculated using the GraphPad Prism version 8.0 program, and the results are shown in Table 18 below.

`COc1cc2ncnc(Nc3cc(C)c(Oc4ccc5c(c4)ncn5C)cc3OC)c2cc1NC(=O)/C(F)=C/[C@H]1CCCN1C` [Example 56, (R,Z)-2-fluoro-N-(7-methoxy-4-((2-methoxy-5-methyl-4-((1-methyl-1H-benzo[d]imidazol-5-yl)oxy)phenyl)amino)quinazolin-6-yl)-3-(1-methylpyrrolidin-2-yl)acrylamide] and `COc1cc2ncnc(Nc3cc(C)c(Oc4ccc5nccnc5c4)cc3OC)c2cc1NC(=O)/C(F)=C/[C@H]1CCCN1C` [Example 63, (R,Z)-2-fluoro-N-(7-methoxy-4-((2-methoxy-5-methyl-4-(quinoxalin-6-yloxy)phenyl)amino)quinazolin-6-yl)-3-(1-methylpyrrolidin-2-yl)acrylamide] cannot be ordered by GI50: no more than 50 nM for the first, no more than 50 nM for the second.

`COc1cc2ncnc(Nc3cc(C4CC4)c(Oc4ccn5ncnc5c4)cc3OC)c2cc1NC(=O)/C(F)=C/[C@H]1CCCN1C` [Example 137, (R,Z)—N-(4-((4-([1,2,4]triazolo[1,5-a]pyridin-7-yloxy)-5-cyclopropyl-2-methoxyphenyl)amino)-7-methoxyquinazolin-6-yl)-2-fluoro-3-(1-methylpyrrolidin-2-yl)acrylamide] and `COc1cc2ncnc(Nc3cc(Br)c(Oc4ccn5ncnc5c4)cc3OC)c2cc1NC(=O)/C(F)=C/[C@H]1CCCN1C` [Example 139, (R,Z)—N-(4-((4-([1,2,4]triazolo[1,5-a]pyridin-7-yloxy)-5-bromo-2-methoxyphenyl)amino)-7-methoxyquinazolin-6-yl)-2-fluoro-3-(1-methylpyrrolidin-2-yl)acrylamide] cannot be ordered by GI50: 50 to 100 nM for the first, no more than 50 nM for the second.

`COc1cc(Oc2ccn3ncnc3c2)c(C)cc1Nc1ncnc2cc(F)c(NC(=O)/C(F)=C\[C@H]3CCCN3C)cc12` [Example 102, (R,E)-N-(4-((4-([1,2,4]triazolo[1,5-a]pyridin-7-yloxy)-2-methoxy-5-methylphenyl)amino)-7-fluoroquinazolin-6-yl)-2-fluoro-3-(1-methylpyrrolidin-2-yl)acrylamide] and `COc1cc2ncnc(Nc3cc(Br)c(Oc4ccn5ncnc5c4)cc3OC)c2cc1NC(=O)/C(F)=C\[C@H]1CCCN1C` [Example 140, (R,E)-N-(4-((4-([1,2,4]triazolo[1,5-a]pyridin-7-yloxy)-5-bromo-2-methoxyphenyl)amino)-7-methoxyquinazolin-6-yl)-2-fluoro-3-(1-methylpyrrolidin-2-yl)acrylamide] cannot be ordered by GI50: no more than 50 nM for the first, no more than 50 nM for the second.

First: C=CC(=O)N1CCC(Nc2cc3c(Nc4cc(C)c(Oc5ccn6ncnc6c5)cc4OC4CN(C)C4)ncnc3cc2OC)CC1 [Example 4, 1-(4-((4-((4-([1,2,4]triazolo[1,5-a]pyridin-7-yloxy)-5-methyl-2-((1-methylazetidin-3-yl)oxy)phenyl)amino)-7-methoxyquinazolin-6-yl)amino)piperidin-1-yl)prop-2-en-1-one]
Second: C=CC(=O)N1CCN(c2ncc3ncnc(Nc4cc(C)c(Oc5ccn6ncnc6c5)cc4OC)c3n2)CC1 [Example 27, 1-(4-(8-((4-([1,2,4]triazolo[1,5-a]pyridin-7-yloxy)-2-methoxy-5-methylphenyl)amino)pyrimido[5,4-d]pyrimidin-2-yl)piperazin-1-yl)prop-2-en-1-one]
The GI50 of the first is higher: 100 to 500 nM for the first, no more than 50 nM for the second.

`COc1cc2ncnc(Nc3cc(C)c(Oc4ccc5c(c4)OCO5)cc3OC)c2cc1NC(=O)/C(F)=C/[C@H]1CCCN1C` [Example 86, (R,Z)—N-(4-((4-(benzo[d][1,3]dioxol-5-yloxy)-2-methoxy-5-methylphenyl)amino)-7-methoxyquinazolin-6-yl)-2-fluoro-3-(1-methylpyrrolidin-2-yl)acrylamide] and `COc1cc2ncnc(Nc3cc(C)c(Oc4ccc5cccnc5c4)cc3OC)c2cc1NC(=O)/C(F)=C/[C@H]1CCCN1C` [Example 87, (R,Z)-2-fluoro-N-(7-methoxy-4-((2-methoxy-5-methyl-4-(quinolin-7-yloxy)phenyl)amino)quinazolin-6-yl)-3-(1-methylpyrrolidin-2-yl)acrylamide] cannot be ordered by GI50: no more than 50 nM for the first, no more than 50 nM for the second.
